Drawing on PubChem BioAssay (NCI), this text covers GI50 and TGI for eight molecules.

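1) Cells in 96-well plates. 2) Compound, 48 h, 5 concentrations. 3) Linear interpolation between surrounding doses. 4) Unreached endpoint = highest concentration. GI50 = concentration required for 50% inhibition of growth. Definition used: TGI = concentration required for complete inhibition of growth.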 Where only a bound is given, the exact number is not on record here.

Assay in all cases: NCI-60 cell line screen, 48 h
In assay [1] the test system is K-562 leukemia.
Assay [2] relates to COLO 205 colon.
Assay [3] relates to PC-3 prostate.
The test system of assay [4] is OVCAR-8 ovarian.
For assay [5], the system named is HCC-2998 colon.
The test system of assay [6] is HT29 colon.
Assay [7] deals with HOP-92 NSCLC.
The test system of assay [8] is MDA-MB-435.
The subject of assay [9] is CCRF-CEM leukemia.
The test system of assay [10] is HCT-15 colon.
For assay [11], the system named is NCI-H23 lung.
Assay [12] deals with RPMI-8226 leukemia.
Assay [13] concerns HCT-116 colon.
The test system of assay [14] is HS 578T breast.
Assay [15] deals with T-47D breast.
Assay [16] deals with OVCAR-5 ovarian.
The test system of assay [17] is SN12C renal.
Assay [18] deals with SNB-19 CNS.
Assay [19] concerns RXF 393 renal.
In assay [20] the test system is HOP-62 NSCLC.
The test system of assay [21] is SK-MEL-2 melanoma.
Assay [22] has as its system MDA-MB-468 breast.
The test system of assay [23] is SK-OV-3 ovarian.
Assay [24] has as its system SF-268 CNS.
The test system of assay [25] is SF-295 CNS.
The test system of assay [26] is SR leukemia.
Assay [27] deals with EKVX NSCLC.
Assay [28] has as its system DU-145 prostate.
In assay [29] the test system is M14 melanoma.
The subject of assay [30] is NCI-H522 lung.
The test system of assay [31] is BT-549 breast.
The subject of assay [32] is KM12 colon.
The subject of assay [33] is CAKI-1 renal.
For assay [34], the system named is OVCAR-4 ovarian.
Assay [35] deals with SF-539 CNS.
In assay [36] the test system is SNB-75 CNS.
Assay [37] has as its system A549 NSCLC.
Assay [38] concerns SW-620 colon.
Assay [39] relates to UACC-62 melanoma.
In assay [40] the test system is LOX IMVI melanoma.
Assay [41] concerns OVCAR-3 ovarian.
Assay [42] relates to MALME-3M melanoma.
The subject of assay [43] is ACHN renal.
In assay [44] the test system is HL-60(TB) leukemia.
The test system of assay [45] is 786-0 renal.
Assay [46] relates to MOLT-4 leukemia.

For the molecule `CN1CCN(C(=O)Oc2cc3c(c4ccccc24)[C@H](CCl)CN3C(=O)c2cc3cc(OCCCN4CCC4)ccc3[nH]2)[C@@H]2CSSC[C@H]21`, the GI50 is 4.4 nM in [1]; 14.8 nM in assay [2]; 19.7 nM in assay [3]; 3.29 nM in assay [4]; 3.47 nM in [5]; 8.29 nM in [6]. Also, the GI50 is 18.2 nM in assay [7]; 12.7 nM in assay [8]; 7.41 nM in assay [9]; 3.82 nM in [10]; 1.74 nM in assay [11]; 23.2 nM in assay [12]. For the same molecule, the GI50 in [13] is 6.75 nM; in assay [14], 27.9 nM; in assay [15], 14.8 nM; in assay [16], 6.88 nM; in assay [17], 10.5 nM; in assay [18] it was 5.79 nM. In addition, the GI50 is 5.66 nM in assay [19]; 5.17 nM in [20]; 18.7 nM in assay [21]; 2.55 nM in assay [22]; 15 nM in [23]; 8.99 nM in assay [24]. In addition, the GI50 in assay [25] is 2.25 nM; in assay [26], 1.68 nM; in assay [27] it was 12.2 nM; in [28], 3.91 nM; in [29], 5.63 nM; in assay [30] it was 10.9 nM. Moreover, the GI50 in assay [31] was 21.3 nM; in assay [32], 15.7 nM; in [33], 2.82 nM; in assay [34] it was 27.5 nM; in [35] it was 5.25 nM; in assay [36], 19.7 nM. For the same molecule, the GI50 was 1.79 nM in assay [37]; 2.28 nM in assay [38]; 2.2 nM in assay [39]; 2.2 nM in assay [40]; 27.4 nM in [41]; 6.37 nM in assay [42]. Besides, the GI50 was 2.37 nM in assay [43], 9.94 nM in assay [44], 13.1 nM in assay [45] and 4.45 nM in assay [46]. Also, the TGI in assay [1] was more than 10 µM; in [2], 33.8 nM; in assay [3], 981 nM; in [4] it was 129 nM; in assay [5] it was 15.2 nM; in [6], more than 10 µM. Also, the TGI amounted to 62.9 nM in assay [7]; 38.1 nM in [8]; 3.32 µM in assay [9]; 24.2 nM in [10]; 5.41 nM in [11]; 1840 nM in assay [12]. The TGI in assay [13] is more than 10 µM; in assay [14] it was 124 nM; in [15], more than 10 µM; in assay [16] it was 40.8 nM; in assay [17], 98.6 nM; in assay [18], 76.2 nM. Further, the TGI in assay [19] was 19 nM; in [20], 60.1 nM; in assay [21], 35.2 nM; in assay [22], 0.00792 µM; in assay [23] it was more than 10 µM; in [24], 293 nM. In addition, the TGI in assay [25] stood at 6.82 nM; in assay [26], 39.2 nM; in assay [27], 40.6 nM; in [28] it was 2440 nM; in assay [29], 21.2 nM; in assay [30], 35.4 nM. Moreover, the TGI is 81.8 nM in assay [31]; 1520 nM in [32]; more than 10 µM in assay [33]; 93.4 nM in assay [34]; 21 nM in assay [35]; 75 nM in assay [36]. Also, the TGI was more than 10 µM in assay [37]; 1480 nM in [38]; 10.5 nM in assay [39]; 15.8 nM in assay [40]; more than 10 µM in assay [41]; 20 nM in assay [42]. Also, the TGI in [43] was 7.23 nM; in [44], 321 nM; in assay [45], 40 nM; in [46], 223 nM.
Take `O=C(Nc1ccc(Br)cc1F)c1cc(I)ccc1O`: in assay [22], the GI50 was 2170 nM and the TGI is 6.22 µM.
The corresponding values for `COc1ccc2c(c1)c(CC(=O)[Se]C)c(C)n2C(=O)c1ccc(Cl)cc1` are more than 419 nM and more than 0.681 µM.
Take `Nc1ncnc2c1N=C(c1ccc3c(c1)OCO3)CC(c1ccc([N+](=O)[O-])cc1)N2` (stereo unspecified): in [22], the GI50 is 25200 nM and the TGI came to 60.4 µM.
The corresponding values for `Cn1ncnc1[C@H]1c2n[nH]c(=O)c3cc(F)cc(c23)N[C@@H]1c1ccc(F)cc1` are 1420 nM and more than 100 µM.
The corresponding values for `O=C1c2c(c3c4cc(Br)ccc4[nH]c3c3ccc4ccccc4c23)C(=O)N1CCN1CCNCC1` are 1800 nM and 4.48 µM.
For the molecule `O=C(N/N=C/C=C/c1ccc([N+](=O)[O-])o1)c1cc2ccccc2cc1O`, in assay [22], the GI50 is 1360 nM and the TGI stood at 3.22 µM.
On the same counts, the results for `Cc1ccc(S(=O)(=O)c2c(COC(=O)c3cccc(C)c3)c(-c3ccccc3)nn2C)cc1` are more than 100000 nM and more than 100 µM.
